Patent publication US20160051543A1 (CHANRX CORPORATION, priority 2013, published 2016)

Columns and labels:
[1] = Plasma concentrations after a single 300 mg dose of vanoxerine in 25 patients (Example 1); type: in vivo, human; details: any time point
Description: Each patient gave samples before administration of their dose, and then again at nine further time points, 30 minutes after administration, 1, 2, 3, 4, 6, 8, 12, and 24 hours post administration.

clinical = details: human, in vivo
Description: The results are listed below in Table 7.

[2] = human, in vivo
Description: A standardized meal was served 15 minutes prior to each dosing.
The non-linear kinetics may be due to increasing bioavailability at higher doses based on a saturation of first pass metabolism.

[3] = Daily dosing for 7 days in four patients (Example 4); type: in vivo, human
[4] = tested on: recent onset symptomatic AF/AFL; assay: Double-blinded placebo-controlled study, conversion of recent onset symptomatic AF/AFL to sinus rhythm (Example 6); type: in vivo, human
Description: (§1) The vanoxerine or identical appearing placebo was randomly assigned and administered in a double-blinded fashion.
Accordingly, a measurement of the improvement comprises a comparison to the rate of conversion of placebo, wherein the improvement is based on the percent increase in conversion over placebo. The 200 mg, having an improvement of conversion of 38%, 96%, and 55% at the above time points, 300 mg: 207%, 126%, and 68%, and the 400 mg: 300%, 230%, and 121%.
Definition of “pure” atrial flutter: only Atrial Flutter (no AF) seen at −30, −15, and 0 time points. Conversion at any time within 24 hours.
The highest oral dose of 400 mg achieved a conversion rate of 76% at 8 hours and 84% within 24 hours.

[5] = Adverse events in the AF/AFL conversion study (Example 6); type: in vivo, human
Description: as §1

[6] = tested on: conversion to normal sinus rhythm; assay: Human plasma concentration charted against conversion to normal sinus rhythm; type: in vivo
Description: This study favorable compares favorably to human models where plasma concentration is charted against conversion to normal sinus rhythm. […] However, most conversions occurred in the range of about 60 ng/ml. Accordingly, modifying doses to reach 60 ng/ml or higher is preferred for effective conversion to normal sinus rhythm.

[7] = cited from earlier work
[8] = cited from earlier work; remark: listed apart in the source
[9] = between patients; cited from earlier work

Question: What does the source list for Fc1ccc(C(OCCN2CCN(CCCc3ccccc3)CC2)c2ccc(F)cc2)cc1 [Vanoxerine, 1-[2-[bis(4-fluorophenyl)methoxy]ethyl]-4-(3-phenylpropyl)piperazine]?
Answer: Highest plasma level, low concentration group [1]: ~40 ng/mL; PK linearity / dose proportionality (clinical): linear and dose proportional; TMax (mean +− SD) (clinical): TMax 1.27 +− 0.5 hr; TMax range (clinical; 50 mg): (0.5-2.0) hr; half-life (clinical; 50 mg): 4.71 to 111 h; half-life (clinical; 75 mg): 10.3 to 117 h; half-life (clinical; 100 mg): 5.56 to 125 h; All patients achieved steady state after [2]: 7 to 10 days; Dose proportionality of steady-state serum levels [2]: disproportionately and statistically greater levels at higher doses; Steady-state plasma concentrations achieved after [2]: 3 days; Systolic blood pressure and heart rate ([3]; 100 mg for 7 days): increases in systolic blood pressure and heart rate were seen; Time to steady-state levels ([3]; all patients, 50, 100, 150 mg daily): within one week; Improvement of conversion (percent increase over placebo) ([4]; 200 mg, 0-4 hours): 38%; Improvement of conversion (percent increase over placebo) ([4]; 200 mg, 0-8 hours): 96%; Improvement of conversion (percent increase over placebo) ([4]; 200 mg, 0-24 hours): 55%; Improvement of conversion (percent increase over placebo) ([4]; 300 mg, 0-24 hours): 68%; Improvement of conversion (percent increase over placebo) ([4]; 400 mg, 0-4 hours): 300%; Improvement of conversion (percent increase over placebo) ([4]; 400 mg, 0-8 hours): 230%; Dose dependence of conversion to sinus rhythm ([4]; doses of 200, 300 and 400 mg): highly statistically significant dose dependent increase; Number of adverse events reported ([5]; 200 mg (22)): 8 AEs; Number of serious adverse events ([5]; 200 mg (22)): 1 SAE; Number of adverse events reported ([5]; 300 mg (25)): 12 AEs; Number of adverse events reported ([5]; 400 mg (25)): 23 AEs; Number of serious adverse events ([5]; 400 mg (25)): 1 SAE; Tolerability ([5]; all doses): well tolerated at all doses; 1:1 AFL post dose ([5]; any subject): No 1:1 AFL seen post dose in any subject; Proarrhythmia ([5]; conversion of recent onset symptomatic AF and AFL): absence of proarrhythmia; Serious adverse events in the study ([5]; one at 200 mg, one at 400 mg, neither related to the study drug): two; Concentration at which most conversions occurred [6]: about 60 ng/ml; AUC ([7]; fasting (no food intake for eight hours)): lowest AUC; Cmax ([7]; high-fat diet (about 73 g fat) versus fasting and low-fat): significantly increased Cmax; Time the concentration remains elevated ([7]; high-fat diet): four to six hours; tmax ([7]; high-fat diet): nearly two and a half hours; Plasma half-life ([8]; in vivo): about 22 hours; Steady state achieved within ([8]; oral dosing, some cases): ≤ 3 days; Difference in Cmax concentrations or AUC between slower and higher metabolism groups [9]: ≥ 10 fold
